Measured values from US8399682B2, “Substituted (pyrazolylcarbonyl)imidazolidinones and their use” (AiCuris GmbH & Co. KG, priority 2008, dated 2013).
Like-named read-outs stand apart in the source and are kept apart here.

Key:
HIV-1NL4-3 wt = assay: Light assay with wild-type HI reporter virus in MT4 7F2 cells; assay type: cell-based; conditions: Human immunodeficiency virus 1, 2% FCS
Protocol: (§1) For the mixture for a 96-well MTP, 3 million MT4 7F2 cells are pelleted, suspended in 1 ml of RPMI 1640 medium without phenol red (Invitrogen, Karlsruhe, Germany)/10% FCS/10% AIM-V (Invitrogen, Karlsruhe, Germany) and incubated together with a suitable amount of the corresponding HIV-1NL4-3 reporter virus at 37° C. for 2 hours (pellet infection). Unadsorbed viruses are subsequently washed out with PBS, and the infected cells are pelleted again and suspended in 8 ml of RPMI 1640 medium without phenol red/2% or 10% FCS/10% AIM-V. 80 μl thereof are pipetted into each well of a white 96-well MTP with 20 μl of test substance in suitable dilution. To avoid edge effects, the wells on the edge of the MTP are not used for substance dilutions. The second vertical row of the MTP contains only infected cells (virus control) and the eleventh vertical row only uninfected cells (cell control), in each case in RPMI 1640 medium without phenol red/2% or 10% FCS/10% AIM-V. The other wells of the MTP contain the compounds of the invention in various concentrations starting from the third vertical row, from which the test substances are diluted in 3-fold steps up to the tenth vertical row 3^7-fold. The test substances are dissolved in DMSO, whereby the final DMSO concentration in the test mixture eventually is 1%. The test mixtures are incubated at 37° C./5% CO2 for five days and, after the addition of 15 μl of Lu164 substrate (5 mg/ml coelenterazine dissolved in 30 μM glutathione/DMSO, 100 mM NaCl, 1M MES, 100 mM glutathione), evaluated by luminometry. The resulting values are in the region of 1 000 000 RLUs (relative light units) for the virus control and 300 to 400 RLUs for the cell control. The EC50 values of the test substances are determined as the concentration at which the virus replication measured in RLUs is 50% of the untreated infected cells.

HIV-1NL4-3 K103N-Y181C = assay: Light assay with inhibitor-resistant HI reporter virus in MT4 7F2 cells; assay type: cell-based; conditions: Human immunodeficiency virus 1, read-out: EC50 (nM) MT4 7F2 cells HIV-1NL4-3 K103N-Y181C 2% FCS
Protocol: as §1

reverse transcriptase = target: T1, reverse transcriptase (Human immunodeficiency virus type 1 group M subtype B, UniProt P04585); assay: Biochemical Reverse Transcriptase Assay (Reverse Transcriptase Assay, colorimetric, Roche)
T1 construct: negative control (mixture without reverse transcriptase); purchased Roche Diagnostics GmbH, Mannheim, Germany
Protocol: The “Reverse Transcriptase Assay, colorimetric” (Roche Diagnostics GmbH, Mannheim, Germany) is used in accordance with the manufacturer's information. The test substances are dissolved in DMSO and are used in the test diluted in 5-fold steps (final DMSO concentration 1%). The resulting values of the photometric evaluation (405/492 nm) are less than 0.1 for the negative control (mixture without reverse transcriptase) and are in the region of 1.5 for the positive control (mixture without test substance). The IC50 values of the test substances are determined as the concentration of the test substance dilution at which the measured optical density is 50% of the positive control.

HIV-1LAI = assay: H9 assay with wild-type HIV-1 (HIV-1LAI supernatant infection, AlamarBlue); assay type: cell-based; conditions: Human immunodeficiency virus 1, H9 cells, 10% FCS
Protocol: For the mixture for a 96-well MTP, 3 million PBLs are pelleted, suspended in 1 ml of RPMI 1640 medium/10% FCS and incubated together with a suitable amount of HIV-1LAI (NIH AIDS Research & Reference Reagent Program, Germantown, USA) at 37° C. for 2 hours (pellet infection). Unadsorbed viruses are subsequently washed out with PBS, and the infected cells are pelleted again and suspended in 18 ml of RPMI 1640 medium/10% FCS/interleukin-2 (40 U/ml). 180 μl thereof are pipetted into each well of a white 96-well MTP with 20 μl of test substance in suitable dilution. Alternatively, after preparation of the substance dilutions in the MTP, the HIV is pipetted in together with the cells and is not washed out again (supernatant infection). In order to avoid edge effects, the wells at the edge of the MTP are not used for substance dilutions. The second vertical row of the MTP contains only infected cells (virus control) and the eleventh vertical row only uninfected cells (cell control), in each case in RPMI 1640 medium/10% FCS/interleukin-2 (40 U/ml). The other wells of the MTP contain the compounds of the invention in various concentrations starting from the third vertical row, from which the test substances are diluted in 3-fold steps up to the tenth vertical row 3^7-fold. The test substances are dissolved in DMSO, whereby the final DMSO concentration in the test mixture eventually is 1%. The test mixtures are incubated at 37° C./5% CO2. After 5 and 7 days, 50 μl of cell-free supernatant are removed from each well to determine the amount of p24 present by means of a p24 ELISA (HIV-1 p24^CA Antigen Capture Assay Kit, NCI-Frederick Cancer Research and Development Center, Frederick, USA). From the resulting values of the photometric evaluation (450/620 nm) the EC50 values of the test substances are determined as the concentration at which the amount of p24 is 50% of the untreated infected cells.
Alternatively, H9 cells (ATCC, Wesel, Germany) are employed instead of PBLs for testing the test substances. H9 cells are incubated in RPMI 1640 medium with 2% or 10% FCS as a HIV-1LAI supernatant infection at 37° C./5% CO2, (20 μl of substance dilution and 80 μl of cells/virus per well) in accordance with the pattern described above for 5 days. Subsequently, 10 μl of AlamarBlue (Invitrogen, Karlsruhe, Germany) are added to each well, and the MTPs are incubated at 37° C. for 3 hours before the fluorimetric evaluation takes place (544/590 nm). The resulting values are about 40 000 for the untreated uninfected cells and about 7000 for the untreated infected cells. In the low concentration range, the EC50 values of the test substances are determined as the concentration at which the fluorescence is 50% of the untreated uninfected cells (in each case subtracting the values of the untreated infected cells). In addition, in the high concentration range, the CC50 values of the test substances are determined as the concentration at which the fluorescence is 50% of the untreated uninfected cells (in each case subtracting the values of the untreated infected cells).

Row | SMILES | EC50 (HIV-1NL4-3 wt) [nM] | EC50 (HIV-1NL4-3 K103N-Y181C) [nM] | IC50 (reverse transcriptase; read-out: IC50 (nM) RT Assay) [nM] | EC50 (HIV-1LAI) [nM] | IC50 (reverse transcriptase) [nM]
1 | COc1cccc(-c2cc(C(=O)N3CNC(=O)C3)nn2-c2ccc(F)c(Cl)c2)c1 [Example 38, 1-{[1-(3-Chloro-4-fluorophenyl)-5-(3-methoxyphenyl)-1H-pyrazol-3-yl]carbonyl}imidazolidin-4-one] | 9 | 80 | 365 | 120 | –
2 | O=C1CN(C(=O)c2cc(-c3cc(F)cc(OCCO)c3)n(-c3ccc(F)c(Cl)c3)n2)CN1 [Example 36] | 0.6 | 45 | – | 3 | 52
3 | N#Cc1cccc(-c2cc(C(=O)N3CNC(=O)C3)nn2-c2ccc(F)c(Cl)c2)c1 [Example 25] | 0.6 | 30 | 99 | 2 | –
4 | N#Cc1cc(F)cc(-c2cc(C(=O)N3CNC(=O)C3)nn2-c2ccc(F)c(C#N)c2)c1 [Example 63, 5-{5-(3-Cyano-5-fluorophenyl)-3-[(4-oxoimidazolidin-1-yl)carbonyl]-1H-pyrazol-1-yl}-2-fluorobenzenecarbonitrile] | 20 | 237 | 102 | 150 | –
5 | N#Cc1cccc(-n2nc(C(=O)N3CNC(=O)C3)cc2-c2cc(F)cc(Cl)c2)c1 [Example 59] | 0.2 | 10 | 8 | 1 | –
6 | COc1cc(F)cc(-c2cc(C(=O)N3CNC(=O)C3)nn2-c2ccc(F)c(Cl)c2)c1 [Example 22, 1-{[1-(3-Chloro-4-fluorophenyl)-5-(3-fluoro-5-methoxyphenyl)-1H-pyrazol-3-yl]carbonyl}imidazolidin-4-one] | 0.3 | 10 | 131 | 2 | –
7 | O=C1CN(C(=O)c2cc(-c3cc(F)cc(C(F)(F)F)c3)n(-c3cccc(Cl)c3)n2)CN1 [Example 30, 1-({1-(3-Chlorophenyl)-5-[3-fluoro-5-(trifluoromethyl)phenyl]-1H-pyrazol-3-yl}carbonyl)imidazolidin-4-one] | 3 | 16 | 297 | 8 | –
8 | O=C1CN(C(=O)c2cc(-c3cc(F)cc(Cl)c3)n(-c3cccc(Cl)c3)n2)CN1 [Example 2, 1-{[5-(3-Chloro-5-fluorophenyl)-1-(3-chlorophenyl)-1H-pyrazol-3-yl]carbonyl}imidazolidin-4-one] | 0.06 | 11 | 34 | 0.2 | –
9 | COc1cc(F)cc(-c2cc(C(=O)N3CNC(=O)C3)nn2-c2cccc(Cl)c2)c1 [Example 21, 1-{[1-(3-Chlorophenyl)-5-(3-fluoro-5-methoxyphenyl)-1H-pyrazol-3-yl]carbonyl}imidazolidin-4-one] | 1 | 38 | 59 | 3 | –
10 | O=C1CN(C(=O)c2cc(-c3cc(F)cc(F)c3)n(-c3cccc(Cl)c3)n2)CN1 [Example 3, 1-{[1-(3-Chlorophenyl)-5-(3,5-difluorophenyl)-1H-pyrazol-3-yl]carbonyl}imidazolidin-4-one] | 0.03 | 7 | 37 | 0.2 | –
11 | N#Cc1cc(-n2nc(C(=O)N3CNC(=O)C3)cc2-c2cc(F)cc(Cl)c2)ccc1F [Example 60, 5-{5-(3-Chloro-5-fluorophenyl)-3-[(4-oxoimidazolidin-1-yl)carbonyl]-1H-pyrazol-1-yl}-2-fluorobenzenecarbonitrile] | 0.1 | 4 | 9 | 0.9 | –
12 | N#Cc1cc(F)cc(-c2cc(C(=O)N3CNC(=O)C3)nn2-c2cccc(Cl)c2)c1 [Example 61, 3-{1-(3-Chlorophenyl)-3-[(4-oxoimidazolidin-1-yl)carbonyl]-1H-pyrazol-5-yl}-5-fluorobenzenecarbonitrile] | 1 | 80 | 35 | 3 | –
13 | N#Cc1cc(F)cc(-c2cc(C(=O)N3CNC(=O)C3)nn2-c2cccc(C#N)c2)c1 [Example 64, 3-{1-(3-Cyanophenyl)-3-[(4-oxoimidazolidin-1-yl)carbonyl]-1H-pyrazol-5-yl}-5-fluorobenzenecarbonitrile] | 5 | 250 | 25 | 100 | –
14 | O=C1CN(C(=O)c2cc(-c3ccc(F)c(Cl)c3)n(-c3cccc(Br)c3)n2)CN1 [Example 33, 1-{[1-(3-Bromophenyl)-5-(3-chloro-4-fluorophenyl)-1H-pyrazol-3-yl]carbonyl}imidazolidin-4-one] | 0.07 | 3 | 8 | 0.5 | –
15 | O=C1CN(C(=O)c2cc(-c3cccc(Cl)c3)n(-c3cccc(Br)c3)n2)CN1 [Example 32, 1-{[1-(3-Bromophenyl)-5-(3-chlorophenyl)-1H-pyrazol-3-yl]carbonyl}imidazolidin-4-one] | 0.1 | 25 | 65 | 0.7 | –
16 | N#Cc1cccc(-n2nc(C(=O)N3CNC(=O)C3)cc2-c2ccc(F)c(Cl)c2)c1 [Example 52, 1-{[5-(3-Chloro-4-fluorophenyl)-1-(3-Cyanophenyl)-1H-pyrazol-3-yl]carbonyl}imidazolidin-4-one] | 0.1 | 17 | 38 | 2 | –
17 | Cc1cc(F)cc(-c2cc(C(=O)N3CNC(=O)C3)nn2-c2cccc(Cl)c2)c1 [Example 51, 1-{[1-(3-Chlorophenyl)-5-(3-fluoro-5-methylphenyl)-1H-pyrazol-3-yl]carbonyl}imidazolidin-4-one] | 0.4 | 15 | 60 | 1 | –
18 | O=C1CN(C(=O)c2cc(-c3cc(F)cc(Cl)c3)n(-c3ccc(F)c(Cl)c3)n2)CN1 [Example 1, 1-{[1-(3-Chloro-4-fluorophenyl)-5-(3-chloro-5-fluorophenyl)-1H-pyrazol-3-yl]carbonyl}imidazolidin-4-one] | 0.2 | 3 | 38 | 2 | –
